Measured values taken from patent EP4678638A1, “NEW E3 UBIQUITIN LIGASE LIGAND, PROTEIN DEGRADATION AGENT AND USE THEREOF” (priority 2023, dated 2024).

Molecular target: T1, human Cereblon WT GST-tagged protein (Homo sapiens, UniProt Q96SW2)
T1 construct: purchased CISBIO 64BDCRBNPEH
Test: CRBN binding, HTRF (CEREBLON BINDING kit)
Conditions: Table II-2, CRBN binding screening, HTRF; for inhibition at 0.5 µM: read-out: Inhibition rate (%) at 0.5µM; for inhibition at 2 µM: read-out: Inhibition rate (%) at 2 µM
Method: The CEREBLON BINDING kits (specification: 10,000 tests; product number: Catalog # 64BDCRBNPEH; CISBIO company) was used to determine the CRBN binding ability of the compounds to be tested through a HTRF method (homogeneous time-resolved fluorescence). The specific methods are as follows: • 1. […] Then, 2.5 µL of human Cereblon WT GST-tagged protein solution was added to each well. Finally, 5 µL of the thoroughly mixed Thalidomide-Re reagent and GST Eu antibody working solution were added to each of the aforementioned wells. […] The blank control wells were sequentially added with 2.5 µL of diluent #9 (1X) solution, 2.5 µL of binding buffer, and 5 µL of thoroughly mixed Thalidomide-Re reagent and GST Eu antibody working solution. • 4. After sealing and incubating the solutions in the aforementioned wells at room temperature for 3 hours, the […] at emission wavelengths of 620 nm and 665 nm were detected by the HTRF method using a Spark microplate reader (V3.1 SP1).

T1 sequence (Q96SW2 whole entry): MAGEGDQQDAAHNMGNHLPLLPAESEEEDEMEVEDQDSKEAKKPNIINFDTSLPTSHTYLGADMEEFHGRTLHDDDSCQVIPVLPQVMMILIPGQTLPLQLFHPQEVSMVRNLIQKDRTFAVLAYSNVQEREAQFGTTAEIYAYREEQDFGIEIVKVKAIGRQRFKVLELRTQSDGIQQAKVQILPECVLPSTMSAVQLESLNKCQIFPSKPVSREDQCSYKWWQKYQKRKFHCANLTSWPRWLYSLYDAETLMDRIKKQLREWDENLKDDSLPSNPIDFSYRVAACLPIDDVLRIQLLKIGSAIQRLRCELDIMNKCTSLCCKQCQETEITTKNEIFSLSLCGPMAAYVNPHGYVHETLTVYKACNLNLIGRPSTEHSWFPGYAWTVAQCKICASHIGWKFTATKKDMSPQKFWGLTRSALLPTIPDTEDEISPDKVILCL

SMILES | inhibition at 0.5 µM (at 0.5µM) [%] | inhibition at 2 µM (at 2 µM) [%] | Inhibition rate (%) at 0.5µM (at 0.5µM) | Inhibition rate (%) at 2 µM (at 2 µM)
CN(C)C(=O)c1cc2cnc(Nc3ccc(N4CCN(Cc5cc(C6CCC(=O)NC6=O)cnc5F)CC4)cn3)nc2n1C1CCCC1 (centres unmarked) [GT-07563, 7-cyclopentyl-2-((5-(4-((5-(2,6-dioxopiperidin-3-yl)-2-fluoropyridin-3-yl)methyl)piperazin-1-yl)pyridin-2-yl)amino)-N,N-dimethyl-7H-pyrrolo[2,3-d]pyrimidine-6-carboxamide] | 20 to 30 | 60 to 80 | – | –
CC(=O)c1c(C)c2cnc(Nc3ccc(N4CCN(Cc5cc(C6CCC(=O)NC6=O)cnc5F)CC4)cn3)nc2n(C2CCCC2)c1=O (centres unmarked) [GT-07591, 3-(5-((4-(6-((6-acetyl-8-cyclopentyl-5-methyl-7-oxo-7,8-dihydropyrido[2,3-d]pyrimidin-2-yl)amino)pyridin-3-yl)piperazin-1-yl)methyl)-6-fluoropyridin-3-yl)piperidine-2,6-dione] | 20 to 30 | 80 to 100 | – | –
CC(C)(O)c1cc2nc(C3CCN(Cc4cc(C5CCC(=O)NC5=O)cnc4F)CC3)sc2cc1NC(=O)c1cccc(C(F)(F)F)n1 (centres unmarked) [GT-07621, N-(2-(1-((5-(2,6-dioxopiperidin-3-yl)-2-fluoropyridin-3-yl)methyl)piperidin-4-yl)-5-(2-hydroxypropan-2-yl)benzo[d]thiazol-6-yl)-6-(trifluoromethyl)picolinamide] | 53 to 60 | 60 to 80 | – | –
CC(C)(O)c1cc2nc(C3CCN(Cc4cc(C5CCC(=O)NC5=O)cnc4F)CC3)oc2cc1NC(=O)c1cccc(C(F)(F)F)n1 (centres unmarked) [GT-07629, N-(2-(1-((5-(2,6-dioxopiperidin-3-yl)-2-fluoropyridin-3-yl)methyl)piperidin-4-yl)-5-(2-hydroxypropan-2-yl)benzo[d]oxazol-6-yl)-6-(trifluoromethyl)picolinamide] | 60 to 80 | 80 to 100 | – | –
CC(C)(O)c1cc2nc(C3CCN(Cc4cncc(C5CCC(=O)NC5=O)c4)CC3)oc2cc1NC(=O)c1cccc(C(F)(F)F)n1 (centres unmarked) [GT-07630, N-(2-(1-((5-(2,6-dioxopiperidin-3-yl)pyridin-3-yl)methyl)piperidin-4-yl)-5-(2-hydroxypropan-2-yl)benzo[d]oxazol-6-yl)-6-(trifluoromethyl)picolinamide] | 20 to 30 | 60 to 80 | – | –
CNC(=O)c1ccccc1Nc1cc(Nc2ccc(N3CCC(N(C)Cc4cc(C5CCC(=O)NC5=O)cnc4F)CC3)cc2OC)ncc1C(F)(F)F (centres unmarked) [GT-07656, 2-((2-((4-(4-(((5-(2,6-dioxopiperidin-3-yl)-2-fluoropyridin-3-yl)methyl)(methyl)amino)piperidin-1-yl)-2-methoxyphenyl)amino)-5-(trifluoromethyl)pyridin-4-yl)amino)-N-methylbenzamide] | 20 to 30 | 60 to 80 | – | –
CNC(=O)c1ccccc1Nc1cc(Nc2cc(C)c(C3CCN(Cc4ccc(N5CCC(=O)NC5=O)cc4)CC3)cc2OC(C)C)ncc1C(F)(F)F [GT-07667, 2-((2-((4-(1-(4-(2,4-dioxotetrahydropyrimidin-1(2H)-yl)benzyl)piperidin-4-yl)-2-isopropoxy-5-methylphenyl)amino)-5-(trifluoromethyl)pyridin-4-yl)amino)-N-methylbenzamide] | 20 to 30 | 53 to 60 | – | –
CNC(=O)c1ccccc1Nc1cc(Nc2cc(C)c(C3CCN(Cc4cccc(N5CCC(=O)NC5=O)c4)CC3)cc2OC(C)C)ncc1C(F)(F)F [GT-07668, 2-((2-((4-(1-(3-(2,4-dioxotetrahydropyrimidin-1(2H)-yl)benzyl)piperidin-4-yl)-2-isopropoxy-5-methylphenyl)amino)-5-(trifluoromethyl)pyridin-4-yl)amino)-N-methylbenzamide] | – | – | a2 (20% < a2 ≤ 30%) | a5 (53% < a5 ≤ 60%)
CNC(=O)c1ccccc1Nc1cc(Nc2cc(C)c(C3CCN(Cc4ccc(N5CCC(=O)NC5=O)cn4)CC3)cc2OC(C)C)ncc1C(F)(F)F [GT-07669, 2-((2-((4-(1-((5-(2,4-dioxotetrahydropyrimidin-1(2H)-yl)pyridin-2-yl)methyl)piperidin-4-yl)-2-isopropoxy-5-methylphenyl)amino)-5-(trifluoromethyl)pyridin-4-yl)amino)-N-methylbenzamide] | 10 to 20 | 53 to 60 | – | –
CNC(=O)c1ccccc1Nc1cc(Nc2cc(C)c(C3CCN(Cc4cc(C5CCC(=O)NC5=O)cnc4F)CC3)cc2OC(C)C)ncc1C(F)(F)F (centres unmarked) [GT-07675, 2-((2-((4-(1-((5-(2,6-dioxopiperidin-3-yl)-2-fluoropyridin-3-yl)methyl)piperidin-4-yl)-2-isopropoxy-5-methylphenyl)amino)-5-(trifluoromethyl)pyridin-4-yl)amino)-N-methylbenzamide] | 40 to 53 | 60 to 80 | – | –
COc1cc(N2CCC(N3CCN(Cc4cc(N5CCC(=O)NC5=O)cnc4F)CC3)CC2)ccc1Nc1ncc(Cl)c(Nc2ccccc2P(C)(C)=O)n1 [GT-07759, 1-(5-((4-(1-(4-((5-chloro-4-((2-(dimethylphosphoryl)phenyl)amino)pyrimidin-2-yl)amino)-3-methoxyphenyl)piperidin-4-yl)piperazin-1-yl)methyl)-6-fluoropyridin-3-yl)dihydropyrimidine-2,4(1H,3H)-dione] | 30 to 40 | 53 to 60 | – | –
O=C1CCN(c2cnc(F)c(CN3CCN(c4ccc(-c5cc(F)c6c(c5)C(=O)N(C(CNc5nccs5)c5ncn7c5CCC7)C6)cc4)CC3)c2)C(=O)N1 (centres unmarked) [GT-07760, 1-(5-((4-(4-(2-(1-(6,7-dihydro-5H-pyrrolo[1,2-c]imidazol-1-yl)-2-(thiazol-2-ylamino)ethyl)-7-fluoro-3-oxoisoindolin-5-yl)phenyl)piperazin-1-yl)methyl)-6-fluoropyridin-3-yl)dihydropyrimidine-2,4(1H,3H)-dione] | 40 to 53 | 60 to 80 | – | –
O=C1CCN(c2cnc(CN3CCN(c4ccc(-c5cc(F)c6c(c5)C(=O)N(C(C(=O)Nc5nccs5)c5ncn7c5CCC7)C6)cc4)CC3)cn2)C(=O)N1 (centres unmarked) [GT-07761, 2-(6,7-dihydro-5H-pyrrolo[1,2-c]imidazol-1-yl)-2-(6-(4-(4-((5-(2,4-dioxotetrahydropyrimidin-1(2H)-yl)pyrazin-2-yl)methyl)piperazin-1-yl)phenyl)-4-fluoro-1-oxoisoindolin-2-yl)-N-(thiazol-2-yl)acetamide] | 20 to 30 | 53 to 60 | – | –
O=C1CCN(c2cncc(CN3CCC(n4cc(NC(=O)c5cnn6ccc(N7CCOCC7)nc56)c(C(F)F)n4)CC3)c2)C(=O)N1 [GT-07766, N-(3-(difluoromethyl)-1-(1-((5-(2,4-dioxotetrahydropyrimidin-1(2H)-yl)pyridin-3-yl)methyl)piperidin-4-yl)-1H-pyrazol-4-yl)-5-morpholinopyrazolo[1,5-a]pyrimidine-3-carboxamide] | 30 to 40 | 60 to 80 | – | –
O=C1CCC(c2cnc(F)c(CN3CCC(n4cc(NC(=O)c5cnn6ccc(N7CCOCC7)nc56)c(C(F)F)n4)CC3)c2)C(=O)N1 (centres unmarked) [GT-07767, N-(3-(difluoromethyl)-1-(1-((5-(2,6-dioxopiperidin-3-yl)-2-fluoropyridin-3-yl)methyl)piperidin-4-yl)-1H-pyrazol-4-yl)-5-morpholinopyrazolo[1,5-a]pyrimidine-3-carboxamide] | 40 to 53 | 80 to 100 | – | –
O=C1CCC(c2ccc(CN3CCC(n4cc(NC(=O)c5cnn6ccc(N7CCOCC7)nc56)c(C(F)F)n4)CC3)nc2)C(=O)N1 (centres unmarked) [GT-07769, N-(3-(difluoromethyl)-1-(1-((5-(2,6-dioxopiperidin-3-yl)pyridin-2-yl)methyl)piperidin-4-yl)-1H-pyrazol-4-yl)-5-morpholinopyrazolo[1,5-a]pyrimidine-3-carboxamide] | 40 to 53 | 80 to 100 | – | –
O=C1CCC(c2cncc(CN3CCC(n4cc(NC(=O)c5cnn6ccc(N7CCOCC7)nc56)c(C(F)F)n4)CC3)c2)C(=O)N1 (centres unmarked) [GT-07770, N-(3-(difluoromethyl)-1-(1-((5-(2,6-dioxopiperidin-3-yl)pyridin-3-yl)methyl)piperidin-4-yl)-1H-pyrazol-4-yl)-5-morpholinopyrazolo[1,5-a]pyrimidine-3-carboxamide] | 30 to 40 | 80 to 100 | – | –
O=C1CCN(c2cncc(CN3CCC(n4cc(NC(=O)c5cnn6ccc(N7C[C@H]8C[C@@H]7CO8)nc56)c(C(F)F)n4)CC3)c2)C(=O)N1 [GT-07774, 5-((1R,4R)-2-oxa-5-azabicyclo[2.2.1]heptan-5-yl)-N-(3-(difluoromethyl)-1-(1-((5-(2,4-dioxotetrahydropyrimidin-1(2H)-yl)pyridin-3-yl)methyl)piperidin-4-yl)-1H-pyrazol-4-yl)pyrazolo[1,5-a]pyrimidine-3-carboxamide] | 40 to 53 | 80 to 100 | – | –
O=C1CCC(c2cnc(F)c(CN3CCC(n4cc(NC(=O)c5cnn6ccc(N7C[C@H]8C[C@@H]7CO8)nc56)c(C(F)F)n4)CC3)c2)C(=O)N1 (stereo partly drawn) [GT-07775, 5-((1R,4R)-2-oxa-5-azabicyclo[2.2.1]heptan-5-yl)-N-(3-(difluoromethyl)-1-(1-((5-(2,6-dioxopiperidin-3-yl)-2-fluoropyridin-3-yl)methyl)piperidin-4-yl)-1H-pyrazol-4-yl)pyrazolo[1,5-a]pyrimidine-3-carboxamide] | 60 to 80 | 80 to 100 | – | –
